Test results as given in US20050148518A1, “Anti-bacterial compositions” (Rowett Research Institute, priority 2002, published 2005).

Columns and labels:
S. enteritidis = test: Growth inhibition monitored by spectrophotometer (650 nm); assay type: cell-based, Salmonella enteritidis; details: Coumarin 2 mM; L-lactate concentration not given
[1] = test system: methicillin-resistant Staphylococcus aureus (MRSA) strain NCTC 10442; test: Viability (killing) of MRSA treated with L-lactate and Coumarin; assay type: cell-based
L. monocytogenes = test: Growth inhibition monitored by spectrophotometer (650 nm); assay type: cell-based, Listeria monocytogenes; details: 1.25 mM Coumarin; L-lactate concentration not given
[2] = test system: E. coli O157:H7 strain NCTC 12900; test: as above; assay type: cell-based, Escherichia coli O157:H7; details: 37° C.; for growth compared to the control (FIG. 13B): 0.625 mM Coumarin, 18 mM L-lactate; for growth compared to the control (FIG. 13A): 12.5 mM L-lactate, 1.25 mM esculetin
[3] = test system: Salmonella enteritidis NCTC 4444; test: Viability (killing) of S. enteritidis treated with L-lactate and Coumarin; assay type: cell-based
[4] = test system: E. coli O157:H7 strain NCTC 12900; assay type: cell-based, Escherichia coli O157:H7; details: for effect on viability of single compounds (FIG. 6A-C): L-lactate 50 mM or coumarin 7.5 mM alone; for dose dependence of inactivation (FIG. 1): L-lactate 50-200 mM, D-lactate 100-200 mM; for effect on viability of single compounds (FIG. 7A): citrate 50 mM or esculetin 7.5 mM alone
[5] = test system: 8 E. coli O157:H7 strains and 8 non-O157:H7 E. coli strains; assay type: cell-based
S. aureus = test: Growth inhibition monitored by spectrophotometer (650 nm); assay type: cell-based, Staphylococcus aureus; details: Coumarin 1.25 mM, L-lactate 5 mM
[6] = test system: Listeria monocytogenes NCTC 11994; test: Viability (killing) of L. monocytogenes treated with L-lactate and Coumarin; assay type: cell-based

Compound: O=c1ccc2ccccc2o1 [Coumarin, 1,2 benzopyrone]
- growth (FIG. 13C) (S. enteritidis): inhibited the growth of S. enteritidis slightly
- effect on viability (FIG. 11D) ([1]; Coumarin 6.8 mM alone): had no effect on the viability
- growth (FIG. 13D) (L. monocytogenes): did not affect the growth of L. monocytogenes
- growth compared to the control (FIG. 13B) [2]: only slightly reduced the extent of growth
- effect on viability (FIG. 11B) ([3]; Coumarin 6.8 mM alone): had no effect on the viability
- effect on viability (FIG. 8A) ([3]; Coumarin 10 mM alone, pH 3.8): did not affect the viability
- effect on viability (FIG. 11A) ([4]; Coumarin 6.8 mM alone): had no effect on the viability
- effect on viability of single compounds (FIG. 6A-C) ([4]; 37° C., pH 3.8): neither 7.5 mM Coumarin (FIG. 6B) nor 7.5 mM umbelliferone (FIG. 6C) affected viability
- survival (FIG. 10) [5]: had little effect on the survival
- growth (FIG. 13E) (S. aureus): inhibited
- effect on viability (FIG. 11C) ([6]; Coumarin 6.8 mM alone): had no effect on the viability
- effect on viability (FIG. 8B) ([6]; Coumarin 10 mM alone, pH 3.8): had no effect on viability

Compound: C[C@@H](O)C(=O)O [D-lactate, reference compound]
- dose dependence of inactivation (FIG. 1) ([4]; pH 3.8, 37° C.): dose-dependent

Compound: O=C(O)c1ccccc1 [benzoate]
- reduction in numbers / viability (FIG. 7A, 7B) ([4]; citrate 50 mM, benzoate 25 mM, esculetin 7.5 mM, 8 hours, pH 3.8): approximately 4 log10 units

Compound: O=C(O)CC(O)(CC(=O)O)C(=O)O [citrate]
- effect on viability of single compounds (FIG. 7A) ([4]; pH 3.8): neither citrate (50 mM) nor esculetin (7.5 mM) when used individually affected the viability

Compound: O=c1ccc2cc(O)c(O)cc2o1 [esculetin]
- growth compared to the control (FIG. 13A) [2]: caused a small reduction in the growth
- effect on viability of single compounds (FIG. 7A) ([4]; pH 3.8): neither citrate (50 mM) nor esculetin (7.5 mM) when used individually affected the viability

Compound: COc1cc2ccc(=O)oc2cc1O [scopoletin]
- effect on viability of single compounds (FIG. 6A-C) ([4]; 37° C., pH 3.8): neither L-lactate (50 mM) nor scopoletin (7.5 mM) on their own affected the viability

Compound: O=c1ccc2ccc(O)cc2o1 [umbelliferone]
- effect on viability of single compounds (FIG. 6A-C) ([4]; 37° C., pH 3.8): neither 7.5 mM Coumarin (FIG. 6B) nor 7.5 mM umbelliferone (FIG. 6C) affected viability

Compound: L-lactate
- reduction in viability (FIG. 8C) ([1]; L-lactate 50 mM, Coumarin 10 mM, 8 hours, pH 3.8): greater than 3 log10 units
- reduction in viability (FIG. 11D) ([1]; L-lactate 2%, Coumarin 6.8 mM, 60 minutes): approximately 2 log10 units
- growth (FIG. 13D) (L. monocytogenes): inhibited growth slightly
- growth compared to the control (FIG. 13B) [2]: inhibited substantially
- growth compared to the control (FIG. 13A) [2]: caused a small reduction in the growth
- antimicrobial effect, L-lactate versus D-lactate (FIG. 2) ([4]; 100 mM each, pH 3.8, 37° C.): exerted a greater antimicrobial effect than 100 mM D-lactate
- effect on viability of single compounds (FIG. 6A-C) ([4]; 37° C., pH 3.8): neither L-lactate (50 mM) nor scopoletin (7.5 mM) on their own affected the viability
- decrease in viability (FIG. 11A) ([4]; L-lactate 2%, Coumarin 6.8 mM, 10 minutes): approximately 3 log10 units
- effectiveness at reducing numbers, L-lactate versus D-lactate (FIG. 1) ([4]; L-lactate 50, 100, 150 or 200 mM, D-lactate 100, 150 or 200 mM, pH 3.8, 37° C.): more effective at reducing numbers of the E. coli O157:H7 strain NCTC 12900 than D-lactate at all concentrations measured
- dose dependence of inactivation (FIG. 1) ([4]; pH 3.8, 37° C.): dose-dependent
- inactivation (percentage survival), L-lactate versus D-lactate (FIG. 3) ([5]; pH 3.8): much greater than that of D-lactate for all the E. coli strains tested
- growth (FIG. 13E) (S. aureus): inhibited
- reduction in viability (FIG. 8B) ([6]; L-lactate 50 mM alone, 8 hours, pH 3.8): greater than 5 log10 units
